Assay results taken from patent publication US9725490B2, “ERAP1-derived peptide and use thereof” (TOKUSHIMA UNIVERSITY, priority 2011, dated 2017).
“Also recorded” adds a separate entry of the source.

Key:
Format in all cases: cell-based, human
ERAP1 expression = test: ERAP1 expression, quantitative RT-PCR and Western, MCF-7; conditions: 10 μM peptide, time course
[1] = tested on: ERα binding to Her2, EGFR, IGF1-Rβ, PI3K; AKt and MAPK routes; test: Non-genomic activation route, immunoblotting, BT474
Protocol: FIG. 10-2 is a diagram illustrating that the ERAP1-peptide regulates E2-induced non-genomic activation route via IGF-1Rβ and Shc. […] BT-474 cells were treated with the ERAP1-peptide and/or E2 for 24 hours. Then, the cytoplasm fraction was immunoprecipitated with anti-ERα antibody.
FIG. 10-3 is a diagram illustrating that the ERAP1-peptide regulates E2-induced non-genomic activation route via IGF-1Rβ and Shc. […] BT-474 cells were treated with the ERAP1-peptide. Then, the phosphorylation levels of Akt and MAPK were evaluated by Western blotting. […] MCF-7 cells were treated with the ERAP1-peptide or the ERAP1-scramble peptide. The relative phosphorylation levels were quantified by densitometry analysis, and the ratio to the value at 0 hour in the untreated cells was calculated.

[2] = tested on: tamoxifen-resistant MCF-7 cells; test: Proliferation of tamoxifen-resistant MCF-7 cells; conditions: 0, 5, 10 μM; in the presence of E2 and tamoxifen; 24 hours
Protocol: FIG. 14 is a diagram illustrating the suppression effect of the ERAP1-peptide on tamoxifen-resistant MCF-7 cells. […] The tamoxifen-resistant MCF-7 cells were treated with the ERAP1-peptide in each concentration (0, 5 and 10 μM). Then, immediately, the cells were stimulated with 10 nM E2 for 24 hours.
As the tamoxifen-resistant MCF-7 cell lines, those provided from Dr. Satoshi Inoue (Saitama Medical University Research Center for Genomic Medicine) under Material transfer agreement were offered for the experiment described below. The culture of tamoxifen-resistant MCF-7 cell was performed under the conditions recommended by the depositor. The tamoxifen-resistant MCF-7 cells were cultured in DMEM (Invitrogen, Carlsbad, Calif., USA) reinforced with 10% FBS (Nichirei Biosciences, Tokyo, Japan), 1% penicillin/streptomycin (Nacalai tesque, Kyoto, Japan), 1 μM tamoxifen (Sigma, St. Louis. Mo., USA).
Cell proliferation assay was evaluated using Cell-Counting Kit-8 (CCK-8, manufactured by Dojindo Company). First, tamoxifen-resistant MCF-7 cells were seeded in 2×10^4/well on a 48-well plate in DMEM/F12 culture medium containing phenol red and stood in a CO2 incubator for 24 hours. […] Then, 100 μl was moved to a 96-well plate from each well, and the absorbance at 450 nm was measured with a microplate reader.

MCF-7 cells = test: Cell cycle FACS analysis, MCF-7; conditions: 10 μM ERAP1-peptide and/or 10 nM tamoxifen, 10 nM E2 24 hours
Protocol: FIG. 6-2 is a diagram illustrating that ERAP1-peptide treatment suppresses ERα-dependent cell proliferation of breast cancer cell lines. […] MCF-7 cells were treated with 10 μM ERAP1-peptide or 10 μM tamoxifen. Then, immediately, the cells were stimulated with 10 nM E2 for 24 hours. After the immobilization, the cells were stained with propidium iodide, and analyzed by flow cytometry.
FIG. 19 is a diagram illustrating the results of FACS analysis showing the effects of concomitant use of the ERAP1-peptide and tamoxifen on the cell cycle.
The cells were fixed with cold 70% ethanol, and stained with 20 μg/ml propidium iodide (Sigma) and 1 mg/ml ribonuclease A (Sigma), and analyzed with FACSCalibur (B D, Franklin Lakes, N.J., USA). The cell cycle was evaluated using CellQuest software (BD).
MCF-7 cells were treated with 10 μM ERAP1-peptide and/or 10 nM tamoxifen. Then, immediately, the cells were stimulated with 10 nM E2 for 24 hours. After the immobilization, the cells were stained with propidium iodide, and analyzed by flow cytometry.

KPL3 cells = test: E2-independent cell proliferation, KPL-3C; conditions: 10 μM every 24 hours, at 48 hours
Protocol: FIG. 16 is a diagram illustrating the influence of the ERAP1-peptide on proliferation of E2-independent breast cancer cells. […] Each of the cells was treated with 10 μM ERAP1-peptide for 24 hours (MCF-7), for 48 hours (KPL-3C) or for 96 hours (ZR-75-1 and T47D).
MCF-7 cells or ZR-75-1 cells were seeded in 2×10^4/well, and KPL-3C cells were seeded in 1×10^4/well on a 48-well plate, and stood in a CO2 incubator for 24 hours. Then, for MCF-7 cells, the culture medium was exchanged with DMEM/F12 culture medium containing 10% FBS (Nichirei Biosciences, Tokyo, Japan), 1% antibiotic/antimycotic solution (Invitrogen), 0.1 mM NEAA48 (invitrogen), 1 mM sodium pyruvate and 10 μg/ml insulin (Sigma, St. Louis, Mo., USA) and not containing phenol red, and the cells were further pre-cultured for 24 hours. On the other hand, for ZR-75-1 cells and KPL-3C cells, the culture media were exchanged with RPMI culture media containing 10% FBS and 1% antibiotic/antimycotic solution and not containing phenol red, and the cells were further pre-cultured for 24 hours. The supernatant was removed, and then 200 μl of the ERAP1-peptide in each concentration or tamoxifen as a positive control was added, respectively and the mixture was reacted for 24 hours. […] Then, 100 μl from each well was moved to a 96-well plate, and the absorbance at 450 nm was measured with a microplate reader.

[3] = tested on: ZR-75-1, HCC1500, BT474, YMB-1, KPL-1, HBC4; test: E2-dependent cell proliferation assay, other ERα/ERAP1-positive breast cancer cell lines; conditions: 10 μM, 10 nM E2 24 hours
Protocol: FIG. 7-2 is a diagram illustrating that ERAP1-peptide treatment suppresses ERα-dependent cell proliferation of breast cancer cell lines. […] Various ERα/ERAP1-positive breast cancer cell lines shown in the figure were treated with 10 μM of the ERAP1-peptide or the scramble peptide or 10 nM tamoxifen. Then, immediately, the cells were stimulated with 10 nM E2 for 24 hours.
Using Cell-Counting Kit-8 (CCK-8, Dojindo, Kumamoto, Japan), the cell proliferation assay was performed. The cells were harvested, and plated in 2×10^4 cells/well on a 48-well plate, and maintained at 37° C. in a humidified incubator. At the indicated time points, the cells were added with a CCK-8 solution diluted to 1:10, and incubated for 1 hour. Then, the absorbance at 450 nm was measured and the number of living cells in each well was calculated.

What does the source list for `CSCC[C@H](NC(=O)[C@H](CCC(N)=O)NC(=O)[C@H](CCCNC(=N)N)NC(=O)[C@H](CCCNC(=N)N)NC(=O)[C@H](CCCNC(=N)N)NC(=O)[C@H](CCCNC(=N)N)NC(=O)[C@H](CCCNC(=N)N)NC(=O)[C@H](CCCNC(=N)N)NC(=O)[C@H](CCCNC(=N)N)NC(=O)[C@H](CCCNC(=N)N)NC(=O)[C@H](CCCNC(=N)N)NC(=O)[C@H](CCCNC(=N)N)NC(=O)[C@@H](N)CCCNC(=N)N)C(=O)N[C@@H](CC(C)C)C(=O)N[C@@H](CO)C(=O)N[C@@H](CC(=O)O)C(=O)N[C@@H](CC(C)C)C(=O)N[C@H](C(=O)N[C@@H](CC(C)C)C(=O)N[C@@H](CCC(N)=O)C(=O)N[C@@H](CC(C)C)C(=O)N[C@@H](CCCNC(=N)N)C(=O)N[C@@H](CCC(N)=O)C(=O)N[C@@H](CCCNC(=N)N)C(=O)O)[C@@H](C)O` [ERAP1-peptide]?
E2-dependent expression of ERAP1 (ERAP1 expression): temporally suppressed; bindings of ERα to Her2, EGFR, IGF1-Rβ and PI3K [1]: all of the bindings of ERα to Her2, EGFR, IGF1-Rβ and PI3K were inhibited; cell proliferation of Tam-R MCF-7 [2]: remarkably suppressed the cell proliferation in dose-dependent manner; cell cycle (MCF-7 cells): induced stop of the G1 phase; also recorded: increase of cells having stopped in the G1 phase; cell proliferation in the absence of E2 (KPL3 cells): significant cell proliferation suppression effect; E2-dependent cell proliferation [3]: remarkable E2-dependent proliferation suppression effect in all of the cells
